In paper PMC8252049 (Chemmedchem, 2021):
pIC50: −log10 of the molar value.

Experiments:
[1] = target: T1, rat liver TrxR1 (cytosolic thioredoxin reductase) (Rattus norvegicus, UniProt O89049); test: DTNB reduction, absorbance […] nm; type: biochemical
T1 sequence (O89049 1-499): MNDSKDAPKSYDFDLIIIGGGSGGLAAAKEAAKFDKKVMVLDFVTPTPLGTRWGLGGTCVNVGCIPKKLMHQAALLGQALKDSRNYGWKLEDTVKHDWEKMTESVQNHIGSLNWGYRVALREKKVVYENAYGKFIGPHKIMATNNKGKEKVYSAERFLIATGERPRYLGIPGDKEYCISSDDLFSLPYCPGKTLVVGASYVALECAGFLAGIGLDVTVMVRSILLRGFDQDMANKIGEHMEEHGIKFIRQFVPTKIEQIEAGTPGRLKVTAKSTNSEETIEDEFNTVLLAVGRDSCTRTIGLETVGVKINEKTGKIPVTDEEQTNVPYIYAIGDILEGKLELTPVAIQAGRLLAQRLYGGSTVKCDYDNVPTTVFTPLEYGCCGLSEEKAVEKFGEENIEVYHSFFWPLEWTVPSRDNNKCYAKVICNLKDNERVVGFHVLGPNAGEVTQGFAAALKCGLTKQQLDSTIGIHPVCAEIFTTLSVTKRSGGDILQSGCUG

[2] = target: rat liver TrxR2 (mitochondrial thioredoxin reductase) (Rattus norvegicus, UniProt Q9Z0J5); test: DTNB reduction, absorbance […] nm; type: biochemical
rat liver TrxR2 (mitochondrial thioredoxin reductase), sequence (Q9Z0J5 37-526): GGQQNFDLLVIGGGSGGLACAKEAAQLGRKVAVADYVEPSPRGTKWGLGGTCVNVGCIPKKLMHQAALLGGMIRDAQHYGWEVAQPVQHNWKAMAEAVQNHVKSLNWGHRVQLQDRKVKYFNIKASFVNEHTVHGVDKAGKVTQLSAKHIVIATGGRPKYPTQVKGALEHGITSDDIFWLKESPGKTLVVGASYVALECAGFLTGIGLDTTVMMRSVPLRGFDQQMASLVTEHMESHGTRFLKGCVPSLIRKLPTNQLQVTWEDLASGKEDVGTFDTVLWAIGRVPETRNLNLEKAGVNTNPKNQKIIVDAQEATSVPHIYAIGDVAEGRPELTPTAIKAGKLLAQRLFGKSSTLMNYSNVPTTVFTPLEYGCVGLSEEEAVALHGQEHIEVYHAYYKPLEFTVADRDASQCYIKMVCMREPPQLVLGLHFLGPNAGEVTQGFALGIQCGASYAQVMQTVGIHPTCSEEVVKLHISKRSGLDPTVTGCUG

Row | pIC50 [1] | pIC50 [2] | Compound
1 | 7.65 | 6.39 | [NH2][Pt]([NH2])([Cl])[Cl] [cisplatin]
2 | 8.59 | – | trans-[PtBr2(NHBz2)(PPh3)] [compound 2]
3 | 8.64 | – | trans-[PtBr2(NHBzBu)(PPh3)] [compound 1]
